In publication PMC6934188, “Epidermal hepcidin is required for neutrophil response to bacterial infection” (The Journal of Clinical Investigation, 2019):
Where no end group is shown, it is not given here.

What was measured:
[1] = tested on: murine primary keratinocytes; test: Cytokines in culture supernatant of murine primary keratinocytes (V-PLEX Proinflammatory Panel1 / CXCL1 ELISA); assay type: cell-based, mouse
[2] = target: SpeB (Streptococcus pyogenes, UniProt P0C0J0)
[3] = tested on: GAS; test: Therapeutic treatment in GAS-induced necrotizing fasciitis mouse model; assay type: in vivo, mouse (C57BL6)
[4] = tested on: SpyCEP; details: incubated overnight with purified SpyCEP or PBS; mass spectrometry read-out; CXCL1 fragments of 5.9 kDa and 1.3 kDa
[5] = tested on: human 3D organotypic skin model; test: IL-8 ELISA on culture supernatant of human 3D organotypic skin model; assay type: cell-based; details: human 3D skin equivalent model stimulated with 3.6 μM hepcidin; n ≥ 3 per group
[6] = tested on: human HaCat keratinocyte cell line; test: IL-8 ELISA on culture supernatant of HaCat; assay type: cell-based; details: HaCat stimulated with 3.6 μM hepcidin; n ≥ 3 per group
[7] = tested on: GAS; test: Rescue experiment: CXCL1 injection into GAS-infected Hamp1Δker mice; details: 1 µg/mouse rCXCL1 s.c. with infection and intralesionally at 24, 48 and 72 h, n ≥ 4 per group
Experimental: (G) Bacterial count in the skin of Hamp1^lox/lox and Hamp1Δ^ker mice injected daily with CXCL1 or PBS; n ≥ 4 per group.
were performed in a C57BL6 background, using 8-12 week old male littermates.
Mouse model of GAS infection
A well-established model of necrotizing soft tissue infection was adapted for this study (3, 4).
In brief, Hamp1lox/lox and Hamp1Δker mice male littermates were subcutaneously injected with
107 c.f.u. of M1T1 5448 GAS. Weight loss and lesion size of mice were estimated daily. After
96 hours, mice were sacrificed and skin necrotic ulcers, spleen, and blood (via retro orbital
bleeding) were recovered and homogenized in sterile PBS. Serial dilutions of tissue
homogenate were spread on THA plates to enumerate bacterial colony forming units (c.f.u.).
For the rescue experiment, Hamp1lox/lox and Hamp1Δker littermates were subcutaneously
infected with 107 c.f.u. of GAS with PBS or 1 µg/mouse of recombinant CXCL1 (rCXCL1;
R&D system, 1395-KC-025/CF). Mice were intralesionally injected again at 24, 48 and 72 h
with PBS or 1 µg of rCXCL1.

hepcidin (DTNFPICIFCCKCCNNSQCGICCKT; ends and bridges not checked; cysteine pairing not given here; UniProt Q9EQ21 59-83, looked up)
CXCL1 in culture supernatant ([1]; murine primary keratinocytes incubated with 0.36 μM and 3.6 μM synthetic hepcidin for 1 or 3 hours, V-PLEX cytoplex, n = 3 per group): dose-dependent increase | CXCL1 induction measured by ELISA ([1]; murine primary keratinocytes, 3.6 uM hepcidin, 1 or 3 hours, N=3 per group (Supplemental Figure 5)): confirmed by ELISA | cleavage by SpeB [2]: not cleaved | bacterial dissemination in CXCL1–/– mice ([3]; CXCL1–/– mice, hepcidin treatment (Supplemental Figure 8)): did not prevent bacterial dissemination | weight variation ([3]; WT mice, s.c. 1 μg hepcidin 24 h after GAS infection, then 500 ng at 48 and 72 h, 4 days, n = 9): recovered their initial weight | mice with absolutely no bacterial dissemination (bacterial count in spleen) ([3]; WT mice, s.c. 1 μg hepcidin 24 h after GAS infection, then 500 ng at 48 and 72 h, spleen c.f.u. at 96 hours, n = 9, all control mice disseminated): 7 of the 9 | signs of systemic disease ([3]; WT mice, s.c. 1 μg hepcidin 24 h after GAS infection, then 500 ng at 48 and 72 h, vs PBS (weight loss, rough hair coat, hunched posture), n = 9): did not present any signs of systemic disease | neutrophil recruitment ([3]; WT mice, s.c. 1 μg hepcidin at inoculation site 24 h after GAS infection, then 500 ng at 48 and 72 h, n = 6 per group): increase in neutrophil recruitment | cleavage by SpyCEP [4]: not cleaved

Ferric Ammonium Citrate [iron]
CXCL1 production (ELISA) ([1]; murine primary keratinocytes stimulated 3 hours with 500 μM ferric ammonium citrate (FAC), n = 3 per group): stimulated CXCL1 production

human hepcidin (DTHFPICIFCCGCCHRSKCGMCCKT; ends and bridges not checked; cysteine pairing not given here; UniProt P81172 60-84, looked up) [human hepcidin used to stimulate HaCat and human 3D organotypic skin model]
production of IL-8 [5]: induce the production of IL-8 | production of IL-8 [6]: induce the production of IL-8

B1: CXCL1 (protein, UniProt P12850 25-96, looked up)
Growth-regulated alpha protein: APIANELRCQCLQTMAGIHLKNIQSLKVLPSGPHCTQTEVIATLKNGREACLDPEAPLVQKIVQKMLKGVPK
bacterial count in the skin lesion [7]: significantly decreased the number of bacteria | cleavage by SpyCEP [4]: cleaved
